Like-named read-outs stand apart in the source and are kept apart here.
Legend:
[1] = PK study of Form I of Compound II in monkeys; type: in vivo; conditions: PO dose of 75 mg/kg; for concentration at 0.083 h / concentration at 0.25 h / concentration at 0.5 hr / concentration at 1 hr / concentration at 2 hr / concentration at 4 hr / concentration at 6 hr / concentration at 8 hr / concentration at 24 h: male, cynomolgus monkey, plasma, po, 75 mg/kg
Procedure: The pharmacokinetics (PK) properties of Form A of Compound I and Form I of Compound II were determined in a series of comprehensive experiments in preclinical species including Sprague-Dawley rats, beagle dogs, cynomolgus monkeys. In those studies, the Form A crystalline salt of Compound I (and Form I crystalline salt of Compound II) was formulated in saline, 0.5% MC in saline or other commonly used suitable formulation vehicles to give a clear solution or as a suspension or a paste depending on the concentration intended to reach and the choice of vehicles. Dosing was by oral gavage. Blood samples were drawn and placed into individual tube containing K2EDTA. Blood samples were put on ice and centrifuged (2000 g for 5 minutes at 4° C.) to obtain plasma within 15 minutes after collection. Plasma samples were stored at approximately −80° C. freezer until analysis. For most of these analyses, Compound I (and Compound II) and the internal standard (IS) were extracted from rat, monkey or dog plasma by protein precipitation, and the extract was evaporated, reconstituted and analyzed using HPLC with tandem mass spectrometric detection (HPLC-MS/MS), see examples for further details. Calibration was accomplished by weighted linear regression of the ratio of the peak area of analyte to that of the added internal standard (IS). For the validated assay in rat and monkey EDTA plasma, the Lower Limit of Quantitation (LLOQ) for both compound 1 and 2 was 5.00 ng/mL, and the assay was linear from 5.00-1,000 ng/mL. PK parameters were calculated by non-compartmental analysis using WinNonlin (versions 4.1 through 6.1). Non-naïve Cynomolgus monkeys, 3.2-3.5 kg, male Dosing solution was prepared by dissolving 682.96 mg of Form I of Compound II in 82.558 mL of 0.5% MC in saline, vortexing for 5 min and sonicating for 18 min to obtain a homogenous solution. The above solution was given to the animals at 10 mL/kg via intragastric administration To collect blood samples, the animals were restrained manually and approx. 0.6-1 mL blood/time point was collected from cephalic or sephanous veins into pre-cooled EDTA tubes. Blood samples were put on ice and centrifuged at 4° C. to obtain plasma within 30 minutes of sample collection. Plasma samples were stored at −70° C. until analysis. • Instrument LC-MS/MS (API4000) • MS conditions Positive ion, EST • HPLC conditions Mobile Phase A: H2O—0.025% formic acid—1 mM NH4OAc • Mobile Phase B: MeOH—0.025% formic acid—1 mM NH4OAc • Column: Boston Crest ODS-C18 (2.1×50 mm, 5 μm) • Flow rate: 0.40 mL/min • Compound II retention time: 2.30 min; • IS retention time: 2.29 min • Sample preparation An aliquot of 20 μL plasma sample was protein precipitated with […] which contains 5 ng/mL IS (P1100970-1). The mixture was vortexed for 2 min, and then centrifuged at 12000 rpm for 5 min. an aliquot of 5 μL supernatant was injected onto the LC-MS/MS system.

[2] = Moisture sorption profile (DVS) of Compound II Form I and amorphous Compound II; type: physicochemical; conditions: DVS at 25° C.
Procedure: The moisture sorption profile was generated of the sample as well as of a sample of amorphous Compound II at 25° C. using a DVS Moisture Balance Flow System (Model Advantage) with the following conditions: sample size approximately 10 mg, drying 25° C. for 60 minutes, adsorption range 0% to 95% RH, desorption range 95% to 0% RH, and step interval 5%. The equilibrium criterion was <0.01% weight change in 5 minutes for a maximum of 120 minutes.

[3] = Stressing of Form A at ~40° C./~75% RH; type: physicochemical
Procedure: Form A samples were stressed at ˜40° C./˜75% relative humidity (RH) for 25-27 days. The samples were added to glass vials and then placed uncapped in jars containing saturated salt solutions. The jars were sealed and placed in an oven. […] XRPD patterns for this sample were collected with a PANalytical X'Pert PRO MPD diffractometer using an incident beam of Cu Kα radiation produced using a long, fine-focus source and a nickel filter. The diffractometer was configured using the symmetric Bragg-Brentano. Prior to the analysis, a silicon specimen (NIST SRM 640d) was analyzed to verify the Si 111 peak position. A specimen of the sample was packing into a nickel-coated copper well. Antiscatter slits (SS) were used to minimize the background generated by air. Soller slits for the incident and diffracted beams were used to minimize broadening from axial divergence. Diffraction patterns were collected using a scanning position-sensitive detector (X'Celerator) located 240 mm from the sample and Data Collector software v. 2.2b. […] TG′analysis was performed using a TA Instruments Q5000 IR and 2950 thermogravimetric analyzers. Temperature calibration was performed using nickel and Alumel™. Each sample was placed in an aluminum pan. Samples ran on TA Instruments 2950 were left uncapped and samples ran on Q5000 was hermetically sealed, the lid pierced, then inserted into the TG furnace. The furnace was heated under nitrogen. The sample was heated from 0° C. to 350° C., at 10° C./min.

[4] = #0610703, read-out: plasma concentration
[5] = #0612169, read-out: plasma concentration
[6] = Mean, read-out: mean plasma concentration

## CC[C@H](C)[C@H](NC(=O)OC)C(=O)N1CCC[C@H]1c1nc2ccc(-c3ccc4cc(-c5cnc([C@@H]6CCCN6C(=O)[C@@H](NC(=O)OC)[C@@H](C)OC)[nH]5)ccc4c3)cc2[nH]1 [Form I of Compound II]
[1]; Cynomolgus monkeys, 0.083 hr, #0610703
  plasma concentration: BQL
[1]; 0.083 hr, #0612169, read-out: plasma concentration
  concentration at 0.083 h: 8.33 ng/mL
[1]; 0.083 hr, Mean, read-out: mean plasma concentration
  concentration at 0.083 h: 8.33 ng/mL
[1]; [4]
  concentration at 0.25 h: 33.3 ng/mL
  concentration at 0.5 hr: 207 ng/mL
  concentration at 1 hr: 497 ng/mL
  concentration at 2 hr: 336 ng/mL
  concentration at 4 hr: 213 ng/mL
  concentration at 6 hr: 110 ng/mL
  concentration at 8 hr: 55.9 ng/mL
  concentration at 24 h: 8.79 ng/mL
[1]; [5]
  concentration at 0.25 h: 86.8 ng/mL
  concentration at 0.5 hr: 273 ng/mL
  concentration at 1 hr: 1140 ng/mL
  concentration at 2 hr: 954 ng/mL
  concentration at 4 hr: 435 ng/mL
  concentration at 6 hr: 194 ng/mL
  concentration at 8 hr: 93.1 ng/mL
  concentration at 24 h: 7.37 ng/mL
[1]; [6]
  concentration at 0.25 h: 60.1 ng/mL
  concentration at 0.5 hr: 240 ng/mL
  concentration at 1 hr: 819 ng/mL
  concentration at 2 hr: 645 ng/mL
  concentration at 4 hr: 324 ng/mL
  concentration at 6 hr: 152 ng/mL
  concentration at 8 hr: 74.5 ng/mL
  concentration at 24 h: 8.08 ng/mL
[2]; 0-75% RH
  Hygroscopicity (in words): medium hygroscopic
[2]; ~85% RH and above
  Water absorption at high RH (in words): absorbed water very quickly
[2]; listed as Compound II Form I
  weight percentage change (water uptake) from 0-75% RH: 4.34%

## COC(=O)N[C@H](C(=O)N1CCC[C@H]1c1ncc(-c2ccc3cc(-c4ccc5nc([C@@H]6CCCN6C(=O)[C@@H](NC(=O)OC)C(C)C)[nH]c5c4)ccc3c2)[nH]1)C(C)C [Form A of Compound I]
[3]; stressed ~40° C./~75% RH 27 days vs unstressed material
  Hygroscopicity (in words): hygroscopic at high RH
[3]; ~40° C./~75% RH, after 27 days, from 25-225° C., equivalent to 5 moles of water
  Thermogravimetric weight loss after stressing: ~10%
[3]; ~40° C./~75% relative humidity, uncapped, after 25 days
  Solid form by XRPD after stressing: remained Form A
